From publication PMC12366525, “Characterization of allosteric modulators that disrupt androgen receptor co-activator protein-protein interactions to alter transactivation–Drug leads for metastatic castration resistant prostate cancer” (SLAS discovery : advancing life sciences R & D, 2023)
pIC50: −log10 of the molar value. Several values for one entry are separate records, joined by “and”; a condition that tells them apart may be missing. Equal values may be shown once.

Tests used:
PSA [1] = test: Western blot of PSA expression in C4–2 cells; format: cell-based, human; settings: C4–2 cells
Protocol: Cell lysate protein concentrations were determined in a bicinchoninic acid (BCA) assay. Equal amounts of cell protein were mixed with SDS-PAGE sample buffer and placed in a heat block at 100 °C for 5 min. The protein constituents of C4–2 cells were separated by SDS-PAGE on 10% separating gels, transferred to nitrocellulose membranes and western blots were probed overnight at 4 °C with a 1:1000 dilution of a rabbit anti-hPSA (Cell Signaling, Danvers, MA) primary antibody in Tris-buffered saline (TBS) Tween 20 (TBST) containing 5% non-fat milk. Membranes were washed 3x in TBST for 10 min, then incubated for 1 h at room temperature with a 1:10,000 dilution of the goat anti-rabbit IgG horse radish peroxidase (HRP) conjugated secondary antibody (Invitrogen, Carlsbad, CA) in TBST containing 5% non-fat milk. Western blots were then washed 3x in TBST and developed with Pierce enhanced chemiluminescence (ECL) western blotting substrate (Thermo Fisher Scientific, Waltham, MA). Images of western blot ECL bands were acquired on an iBright 1500 imaging system (Thermo Fisher Scientific, Waltham, MA) and quantified by iBright image analysis software.

PSA [2] = test: Dot blot of PSA secretion by C4–2 cells; format: cell-based, human; settings: C4–2 cells; 10 nM DHT 24 h
Protocol: To determine PSA secretion levels, C4–2 cells were seeded at 1.4 × 10 [5] cells/well in 12-well plates and treated as described above for PSA cell expression experiments. […] 500 μL of conditioned media supernatant was added to the wells of 96-well to Bio-blot apparatus (BioRad, Hercules, CA) containing a nitrocellulose membrane and was allowed to pass through and attach to the membrane under gravity for 3–4 h at room temperature. The membrane was washed 1x with 500 μL TBS under vacuum, blocked with 1% BSA in TBST for 1 h, and then incubated overnight at 4 °C with the primary rabbit anti-hPSA antibody (Cell Signaling, Danvers, MA) diluted 1:1000 in TBST plus 1% BSA. Dot blots were washed 3x in 10 mL of TBST for 10 min, then incubated for 1 h with secondary goat anti-rabbit-IgG HRP conjugated antibody (Invitrogen, Carlsbad, CA) diluted 1:10,000 in TBST plus 1% Bovine Serum Albumin (BSA), washed 3x with 10 mL of TBST for 10 min, and then developed with Pierce ECL western blotting substrate. Images of ECL dot blots were acquired on an iBright 1500 imaging system and quantified by iBright image analysis software.

AR-TIF2 PPI [3] = molecular target: T1, AR-TIF2 PPI (Homo sapiens, UniProt P10275); test: AR-TIF2 PPI biosensor (PPIB) HCS assay, inhibition of DHT-induced AR-TIF2 PPI formation; format: cell-based; settings: U-2 OS cells; compounds 3 h prior to 25 nM DHT for 90 min
T1 construct: expressed in transfected cells; host or cells: U-2 OS osteosarcoma cells, co-infected with recombinant adenoviruses
T1 sequence (P10275 663-920 limits assumed): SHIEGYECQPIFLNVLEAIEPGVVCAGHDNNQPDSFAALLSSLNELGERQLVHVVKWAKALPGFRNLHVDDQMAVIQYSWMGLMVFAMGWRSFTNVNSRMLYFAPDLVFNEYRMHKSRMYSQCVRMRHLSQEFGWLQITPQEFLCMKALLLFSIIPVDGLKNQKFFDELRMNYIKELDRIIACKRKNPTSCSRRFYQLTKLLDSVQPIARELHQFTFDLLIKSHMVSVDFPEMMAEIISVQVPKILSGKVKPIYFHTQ
Protocol: (§1) Daughter plates containing 2 μL of the serially diluted compounds in DMSO were prepared and replicated from 384-well serial dilution master plates using a Janus MDT platform outfitted with a 384-well transfer head. Aluminum adhesive plate seals were applied, and plates were stored at −20 °C. For bioassay testing, daughter plates were withdrawn from −20 °C storage, thawed to ambient temperature, and centrifuged for 1 min at 100 × g, and plate seals were removed before 38 μL of serum-free media (SFM) was transferred into wells using a Matrix pipettor (ThermoFisher, Waltham, MA), to generate an intermediate stock concentration of validation compounds ranging from 0.977 to 500 μM (5.0% DMSO). Diluted compounds were mixed by repeated aspiration and dispensation using a 384-well P30 dispensing head on the Janus MDT platform and then, 5 μL of diluted compounds was transferred to assay plate wells to provide a final concentration range from 0.0977 to 50 μM (0.5% DMSO).
(§2) The AR-TIF2 PPIB HCS assay was performed in U-2 OS osteosarcoma cells as described previously. Briefly, U-2 OS cells were coinfected with recombinant adenovirus biosensor expression constructs and seeded at 2500 cells per well in 384-well collagen-coated microplates (Greiner BioOne #781956) and plates were incubated overnight at 37°C in 5% CO2 and 95% humidity. […] After the appropriate time, assay plates were fixed by transfer of 50 μL of pre-warmed (37°C) 7.4% formaldehyde and 2 μg/mL Hoechst 33342 in PBS and incubation at room temperature for 30 min. Liquid was aspirated, plates were washed twice with 85 μL PBS, leaving the final wash in the plate. Plates were sealed with adhesive aluminum plate seals, and fluorescent images of three fields of view were acquired in the DAPI (Hoechst stained nuclei), FITC (TIF2-GFP) and Texas Red (AR-RFP) channels on an ImageXpress Micro (IXM) automated HCS platform (Molecular Devices LLC, Sunnyvale, CA) using a 10X Plan Fluor 0.3 NA objective. Images were analyzed using the Translocation Enhanced (TE) image analysis module of the MetaXpress software as described previously.
(§3) In 384-well assays, DMSO minimum (n = 32) and maximum (n = 32) plate control wells were utilized to calculate signal-to-background ratios (S:B) and Z’-factor coefficient assay performance quality control statistics, and to normalize the signals of compound treated wells and to represent 0% and 100% respectively. For the 96-well AR-LBD H^3-DHT radioligand binding assay, eight minimum and maximum plate control wells were utilized to normalize the data. For the PC cell line growth inhibition assays we used the DMSO control data from the T0 and T72 assay plates to assess the dynamic range of the T0 to T72 cell growth, and to calculate S:B ratios and Z’-factor coefficient statistics for the assay signal window (T0 to T72). To normalize the 72 h compound exposure PC growth inhibition data, the signals from the compound treated wells were processed and expressed as% of the T72 DMSO plate controls. IC50 and GI50 values for each of the bioassays were calculated using Graph-Pad Prism 9 software to plot and fit data to curves using the Sigmoidal dose response variable slope equation Y = Bottom + [Top-Bottom]/ [1 + 10^^(LogEC50-X)*HillSlope].

AR-TIF2 PPI [4] = molecular target: T1, AR-TIF2 PPI; test: AR-TIF2 PPI biosensor (PPIB) HCS assay, disruption of pre-formed AR-TIF2 PPI complexes; format: cell-based; settings: U-2 OS cells; 25 nM DHT 90 min prior to compounds for 3 h
Protocol: as §1, §2, §3

U-2 OS cells = test: AR-TIF2 PPIB cell loss (Hoechst stained nuclei); format: cell-based; settings: 4.5 h compound exposure
Protocol: as §2

DU-145 cells = test: Prostate cancer cell line growth inhibition assay, DU-145; format: cell-based; settings: Homo sapiens, DU-145, 72 h; read-out: DU145 GI50 (AR−)
Protocol: (§4) The PC-3, DU-145, LNCaP, C4–2, and 22Rv1 PC cell line growth inhibition assays have been described previously. On day 1, each PC cell line was harvested, counted, and seeded into two 384-well assay plates, a time zero (T0) and a time 72 h (T72) plate. PC cell lines were all seeded at 1000 cells per well in 45 μL of tissue culture media in uncoated white clear bottom 384-well assay plates (VWR, # 82050–076) using a Matrix electronic multichannel pipette (Thermo Fisher Scientific, Waltham, MA) and cultured overnight at 37 °C, 5% CO2, and 95% humidity. On day 2, 25 μL of the Cell Titer Glo (CTG) (Promega Corporation, Madison, WI) detection reagent was dispensed into the wells of the T0 assay plate using a Matrix electronic multichannel pipette, and the RLUs were captured on the SpectraMax M5e (Molecular Devices LLC, Sunnyvale, CA) microtiter plate reader. Also on day 2, 5 μL of compounds were transferred into the test wells of the T72 384-well assay plates which were returned to the incubator for 72 h. Control wells received DMSO alone. On day 5, 25 μL of the CTG detection reagent was dispensed into the wells of the T72 assay plate using a Matrix electronic multichannel pipette, and the RLU’s were captured on the SpectraMax M5e microtiter plate reader platform.
as §3

PC-3 cells = test: Prostate cancer cell line growth inhibition assay, PC-3; format: cell-based; settings: Homo sapiens, PC-3, 72 h, read-out: PC3 GI50 (AR−)
Protocol: as §4, §3

22Rv1 cells = test: Prostate cancer cell line growth inhibition assay, 22Rv1; format: cell-based; settings: Homo sapiens, 22Rv1, 72 h; read-out: 22Rv1 GI50 (AR+)
Protocol: as §4, §3

LNCaP cells = test: Prostate cancer cell line growth inhibition assay, LNCaP; format: cell-based; settings: Homo sapiens, LNCaP, 72 h; read-out: LNCap GI50 (AR+)
Protocol: as §4, §3

C4–2 cells = test: Prostate cancer cell line growth inhibition assay, C4–2; format: cell-based; settings: C4-2, 72 h; read-out: C4–2 GI50 (AR +)
Protocol: as §4, §3

[5] = test system: PC cell lines positive (LNCaP, C4–2, & 22Rv1 cells) or negative (PC-3 & DU-145) for AR; test: Prostate cancer cell line growth inhibition assays, panel statements; format: cell-based; settings: ALL5; all 5 PC cell lines; 72 h; ≥50% growth inhibition not achieved at ≤100 μM; read-out: GI50 in any PC cell line
Protocol: as §4, §3

[6] = test system: LNCaP mouse xenograft models; settings: cited from earlier work

**Q.** What does the source list for C[C@]12CCC(=O)C[C@@H]1CC[C@@H]1[C@@H]2CC[C@]2(C)[C@@H](O)CC[C@@H]12 [DHT, 5α-dihydrotestosterone, reference compound]?
**A.** Increase of PSA levels in cells over untreated controls (PSA [1]; 10 nM DHT 24 h): 12.3 fold and 11.4 fold; Increase of PSA levels in conditioned media over untreated controls (PSA [2]): 2.4 fold

**Q.** With Cc1nsc(NC(=O)N2CCC(N3CCCC3=O)CC2)n1 [S2–9] as the compound, how does the pIC50 (AR-TIF2 PPI [3]) read?
**A.** Its pIC50 is < 4.00.

**Q.** What about the pIC50 (AR-TIF2 PPI [4]) of the same compound?
**A.** Its pIC50 is < 4.00.

**Q.** And the “AR-TIF2 PPIB Cell Loss” value (U-2 OS cells)?
**A.** Its value is >100 µM.

**Q.** And the GI50 (DU-145 cells)?
**A.** The GI50 was > 100 µM.

**Q.** And the GI50 (PC-3 cells)?
**A.** Its GI50 is > 100 µM.

**Q.** And the GI50 (22Rv1 cells)?
**A.** Its GI50 is > 100 µM.

**Q.** And the GI50 (LNCaP cells)?
**A.** Its GI50 is > 100 µM.

**Q.** What about the GI50 (C4–2 cells) of the same compound?
**A.** Its GI50 is > 100 µM.

**Q.** And the GI50 [5]?
**A.** The GI50 was > 100 µM.

**Q.** For Cc1nsc(NC(=O)N2CCC(F)CC2)n1 [S2–10], which “AR-TIF2 PPIB Cell Loss” value (U-2 OS cells) is on record?
**A.** Its value is >100 µM.

**Q.** And the GI50 (DU-145 cells)?
**A.** The GI50 was > 100 µM.

**Q.** What about the GI50 (PC-3 cells) of the same compound?
**A.** The GI50 was > 100 µM.

**Q.** And the GI50 (22Rv1 cells)?
**A.** The GI50 was > 100 µM.

**Q.** What about the GI50 (LNCaP cells) of the same compound?
**A.** The GI50 was > 100 µM.

**Q.** What about the GI50 (C4–2 cells) of the same compound?
**A.** The GI50 was > 100 µM.

**Q.** And the GI50 [5]?
**A.** Its GI50 is > 100 µM.

**Q.** With Cc1c(-c2ccccc2F)[nH]c2ccc(CNC(=O)c3cc[nH]n3)cc12 [S3–16] as the compound, how does the pIC50 (AR-TIF2 PPI [3]) read?
**A.** The pIC50 was 4.54.

**Q.** With Cc1c(-c2ccccc2F)[nH]c2ccc(CNC(=O)CCC3=NNC(=O)CC3)cc12 [S3–18] as the compound, how does the pIC50 (AR-TIF2 PPI [3]) read?
**A.** The pIC50 was 4.40.

**Q.** And the pIC50 (AR-TIF2 PPI [4])?
**A.** The pIC50 was < 4.00.

**Q.** With Cc1c(-c2ccccc2F)[nH]c2ccc(CNC(=O)Cc3cccnc3)cc12 [S3–19] as the compound, how does the pIC50 (AR-TIF2 PPI [3]) read?
**A.** The pIC50 was 4.16.

**Q.** And the pIC50 (AR-TIF2 PPI [4])?
**A.** Its pIC50 is < 4.00.

**Q.** With CCc1[nH]c2c(CNC(=O)CCCc3cn[nH]c3)cc(F)cc2c1C [S3–25] as the compound, how does the pIC50 (AR-TIF2 PPI [3]) read?
**A.** The pIC50 was 4.11.

**Q.** With Cc1cccc2c(-c3ccc4ccccc4n3)c[nH]c12 [VPC-13566, 2-(7-methyl-1H-indol-3-yl) quinoline] as the compound, how does the “CRPC tumor growth and serum PSA levels” value [6] read?
**A.** The value was “reduced CRPC tumor growth and serum PSA levels”.

**Q.** With CC(C)NC(=O)c1cccc2nc(-c3cn(COP(=O)([O-])[O-])c4c(F)c(F)c(F)cc34)ccc12.[Na+].[Na+] [VPC-13822] as the compound, how does the “PSA production and CRPC tumor volume” value [6] read?
**A.** The value was “reduced PSA production and CRPC tumor volume”.

**Q.** And the “Toxicity in xenograft models” value ([6]; mouse, in vivo)?
**A.** Its value is “no observable toxicity”.

**Q.** With CNC(=O)c1ccc(N2C(=S)N(c3ccc(C#N)c(C(F)(F)F)c3)C(=O)C2(C)C)cc1F [enzalutamide, reference compound] as the compound, how does the “Reduction of DHT-enhanced PSA expression levels” value (PSA [1]; 25 μM for 3 h prior to 10 nM DHT, 24 h) read?
**A.** The value was 7.5 fold.

**Q.** What about the “Reduction of endogenous PSA expression levels” value (PSA [1]; 25 μM for 3 h prior to media, 24 h) of the same compound?
**A.** Its value is 3.3 fold.
